# In US11607446B2, “Personalized immunotherapy against several neuronal and brain tumors” (Immatics Biotechnologies GmbH, priority 2013, dated 2023):
# Tested on: CD8+ T cells
# Test: In vitro immunogenicity of HLA-A*02 class I peptides: in vitro T-cell priming with aAPCs loaded with peptide/MHC complexes and anti-CD28 antibody, pMHC multimer readout
# Format: cell-based, human
# Conditions: HLA-A*02 peptides; for Donors / Donors (percentage in brackets): healthy donors; for Donors: specific multimer+ CD8+ T-cell line after in vitro stimulation; for Wells: in vitro stimulated wells of healthy donors' CD8+ T cells, specific multimer+ readout
Sequence,Donors,Wells,Donors (percentage in brackets) [%]
AIIDGVESV (listed as Homo sapiens) [PTP-003],++++ (>70% = ++++),+ (<20% = +),
ALADIAVGV (listed as Homo sapiens) [ADORA3-001],++ (20%-49 % = ++),+ (<20% = +),
ALAFKLDEV (listed as Homo sapiens) [SLC10A4-001],+++ (50%-70% = +++),++ (20%-49 % = ++),
ALFNKGGSVFL (listed as Homo sapiens) [GPR98-001],++ (20%-49 % = ++),+ (<20% = +),
ALGDIREV (listed as Homo sapiens) [ANKRD40-001],+++ (50%-70% = +++),+ (<20% = +),
ALTTLMHQL (listed as Homo sapiens) [PTP-001],++ (20%-49 % = ++),+ (<20% = +),
ALWAWPSEL (listed as Homo sapiens) [BCA-002],++++ (>70% = ++++),++++ (>70% = ++++),100
AMTQLLAGV (listed as Homo sapiens) [TNC-001],++ (20%-49 % = ++),+ (<20% = +),
AVAPGPWKV (listed as Homo sapiens) [MAGI2-001],++ (20%-49 % = ++),+ (<20% = +),
AVVEFLTSV (listed as Homo sapiens) [DROSHA-001],++ (20%-49 % = ++),+ (<20% = +),
EILDYIYEV (listed as Homo sapiens) [ASIC4-001],++ (20%-49 % = ++),+ (<20% = +),
FLDSKFYLL (listed as Homo sapiens) [MAP1B-001],+++ (50%-70% = +++),+ (<20% = +),
FLLPDTDGLTAL (listed as Homo sapiens) [PTP-012],++ (20%-49 % = ++),+ (<20% = +),
FLVDGSWSI (listed as Homo sapiens) [COL20-001],++ (20%-49 % = ++),+ (<20% = +),
FLWSDGVPL (listed as Homo sapiens) [BCA-003],++ (20%-49 % = ++),+ (<20% = +),
FLYKVILSL (listed as Homo sapiens) [PTP-002],+++ (50%-70% = +++),+ (<20% = +),
FLYNEALYSL (listed as Homo sapiens) [DPP3-001],+++ (50%-70% = +++),+ (<20% = +),
GLDPSSGAIHV (listed as Homo sapiens) [PCDHGC5-001],++++ (>70% = ++++),+ (<20% = +),100
GLLDQIQAL (listed as Homo sapiens) [NLGN4X-002],++ (20%-49 % = ++),+ (<20% = +),
GLMEKIKEL (listed as Homo sapiens) [CPT1C-001],++ (20%-49 % = ++),+ (<20% = +),
GLPSGAPPGV (listed as Homo sapiens) [MTSS1L-001],++++ (>70% = ++++),+++ (50%-70% = +++),100
GLSEFTEYL (listed as Homo sapiens) [MAP1B-002],++ (20%-49 % = ++),+ (<20% = +),
GLWHHQTEV (listed as Homo sapiens) [NRC AM-001],++++ (>70% = ++++),+ (<20% = +),100
GMMTAILGV (listed as Homo sapiens) [SLC35E1-002],++ (20%-49 % = ++),+ (<20% = +),
GVLENIFGV (listed as Homo sapiens) [PCNXL3-001],++ (20%-49 % = ++),+ (<20% = +),

Sequence,Donors,Wells,Donors (percentage in brackets) [%]
ILFEINPKL (listed as Homo sapiens) [ABCA13-001],++ (20%-49 % = ++),+ (<20% = +),
ILFPDIIARA (listed as Homo sapiens) [MAGEF1-001],++++ (>70% = ++++),++ (20%-49 % = ++),
ILIDWLVQV (listed as Homo sapiens) [CCNB1-002],+++ (50%-70% = +++),+ (<20% = +),
KIQEILTQV (listed as Homo sapiens) [IGF2BP3-001],+++ (50%-70% = +++),+ (<20% = +),
KLADQYPHL (listed as Homo sapiens) [SOX-001],++++ (>70% = ++++),+ (<20% = +),
KLCEGFNEV (listed as Homo sapiens) [CHCHD2-005],+++ (50%-70% = +++),+ (<20% = +),
KLFDSDPITVTV (listed as Homo sapiens) [CLU-001],++ (20%-49 % = ++),+ (<20% = +),
KLGDFGLATVV (listed as Homo sapiens) [DCA-001],++ (20%-49 % = ++),+ (<20% = +),
KLTDIQIEL (listed as Homo sapiens) [JAK-001],++ (20%-49 % = ++),+ (<20% = +),
KLVEFDFLGA (listed as Homo sapiens) [TACC3-001],++ (20%-49 % = ++),+ (<20% = +),
KVFAGIPTV (listed as Homo sapiens) [PTP-005],++++ (>70% = ++++),++ (20%-49 % = ++),
KVFDEVIEV (listed as Homo sapiens) [GYG2-001],++ (20%-49 % = ++),+ (<20% = +),
LLLGSPAAA (listed as Homo sapiens) [SEZ6L-001],++++ (>70% = ++++),+ (<20% = +),
LLQDRLVSV (listed as Homo sapiens) [PLEKHA4-001],+++ (50%-70% = +++),+ (<20% = +),
LLWGNAIFL (listed as Homo sapiens) [KIF1A-001],+++ (50%-70% = +++),++ (20%-49 % = ++),
LLYDAVHIV (listed as Homo sapiens) [GRIK3-001],++++ (>70% = ++++),+ (<20% = +),
LLYTGDLEAL (listed as Homo sapiens) [NPAS3-001],++ (20%-49 % = ++),+ (<20% = +),
LTAPPEALLMV (listed as Homo sapiens) [NOC4-001],+++ (50%-70% = +++),+ (<20% = +),
LTFGDVVAV (listed as Homo sapiens) [FABP7-001],++++ (>70% = ++++),+ (<20% = +),
MIWEHNVEV [PTP-013],++++ (>70% = ++++),+ (<20% = +),
MLFGHPLLVSV (listed as Homo sapiens) [USP11-001],++++ (>70% = ++++),++ (20%-49 % = ++),
NILEQIVSV (listed as Homo sapiens) [GRI-001],++ (20%-49 % = ++),+ (<20% = +),
NLDTLMTYV (listed as Homo sapiens) [NLGN4X-001],++++ (>70% = ++++),++ (20%-49 % = ++),100
NLLAEIHGV (listed as Homo sapiens) [DPYSL4-001],++ (20%-49 % = ++),+ (<20% = +),
